Results: ChEMBL document CHEMBL1201862, “PubChem BioAssay data set” (2004)
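Results reflect a 48-hour exposure of cells in 96-well plates to compound at five concentrations. Abbreviation: GI50, concentration required for 50% inhibition of growth.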 Active and inactive are the calls of the source. Cut-off read from the data, not from the text of the source: active = GI50 up to about 1.1 µM and inactive = higher.

Experiments:
Test in all cases: growth of human tumour cells (NCI), 48 h
[1] = system: NCI-H522
[2] = system: OVCAR-5
[3] = system: TK-10
[4] = system: ACHN
[5] = system: SW-620
[6] = system: SK-OV-3
[7] = system: SK-MEL-28
[8] = system: SNB-75
[9] = system: M14
[10] = system: CCRF-CEM
[11] = system: PC-3
[12] = system: SF-539
[13] = system: SK-MEL-5
[14] = system: SF-268
[15] = system: SNB-19
[16] = system: MDA-N
[17] = system: MCF7
[18] = system: MDA-MB-231
[19] = system: UACC-257
[20] = system: BT-549
[21] = system: NCI/ADR-RES
[22] = system: SR
[23] = system: HT-29
[24] = system: UO-31
[25] = system: Hs-578T
[26] = system: HCT-15
[27] = system: 786-0
[28] = system: OVCAR-8
[29] = system: A498
[30] = system: RXF 393
[31] = system: U-251
[32] = system: A549
[33] = system: MOLT-4
[34] = system: T47D
[35] = system: IGROV-1
[36] = system: SN12C
[37] = system: HOP-62
[38] = system: OVCAR-3
[39] = system: COLO 205
[40] = system: LOX IMVI
[41] = system: EKVX
[42] = system: RPMI-8226
[43] = system: HL-60
[44] = system: HOP-92
[45] = system: K562
[46] = system: NCI-H460
[47] = system: Malme-3M
[48] = system: NCI-H226
[49] = system: SF-295
[50] = system: UACC-62
[51] = system: HCT-116
[52] = system: DU-145
[53] = system: SK-MEL-2
[54] = system: HCC 2998
[55] = system: CAKI-1
[56] = system: NCI-H23
[57] = system: KM12
[58] = system: MDA-MB-435
[59] = system: OVCAR-4

Cc1c(C)c(C)c(CC2(C)CSC2)c(CC2(C)CSC2)c1C
GI50 [1]: > 100 µM (inactive) | GI50 [2]: > 100 µM (inactive) | GI50 [3]: > 100 µM (inactive) | GI50 [4]: > 100 µM (inactive) | GI50 [5]: > 100 µM (inactive) | GI50 [6]: > 100 µM (inactive) | GI50 [7]: > 100 µM (inactive) | GI50 [8]: > 100 µM (inactive) | GI50 [9]: > 100 µM (inactive) | GI50 [10]: > 100 µM (inactive) | GI50 [11]: > 100 µM (inactive) | GI50 [12]: > 100 µM (inactive) | GI50 [13]: > 100 µM (inactive) | GI50 [14]: > 100 µM (inactive) | GI50 [15]: > 100 µM (inactive) | GI50 [16]: > 100 µM (inactive) | GI50 [17]: > 100 µM (inactive) | GI50 [18]: > 100 µM (inactive) | GI50 [19]: > 100 µM (inactive) | GI50 [20]: > 100 µM (inactive) | GI50 [21]: > 100 µM (inactive) | GI50 [22]: > 100 µM (inactive) | GI50 [23]: > 100 µM (inactive) | GI50 [24]: > 100 µM (inactive) | GI50 [25]: > 100 µM (inactive) | GI50 [26]: > 100 µM | GI50 [27]: > 100 µM (inactive) | GI50 [28]: > 100 µM (inactive) | GI50 [29]: > 100 µM (inactive) | GI50 [30]: > 100 µM (inactive) | GI50 [31]: > 100 µM (inactive) | GI50 [32]: > 100 µM (inactive) | GI50 [33]: > 100 µM (inactive) | GI50 [34]: > 100 µM (inactive) | GI50 [35]: > 100 µM (inactive) | GI50 [36]: > 100 µM (inactive) | GI50 [37]: > 100 µM (inactive) | GI50 [38]: > 100 µM (inactive) | GI50 [39]: > 100 µM (inactive) | GI50 [40]: > 100 µM (inactive) | GI50 [41]: > 100 µM (inactive) | GI50 [42]: > 100 µM (inactive) | GI50 [43]: > 100 µM (inactive) | GI50 [44]: > 100 µM (inactive) | GI50 [45]: > 100 µM (inactive) | GI50 [46]: > 100 µM (inactive) | GI50 [47]: > 100 µM (inactive) | GI50 [48]: > 100 µM (inactive) | GI50 [49]: > 100 µM (inactive) | GI50 [50]: > 100 µM (inactive) | GI50 [51]: > 100 µM (inactive) | GI50 [52]: > 100 µM (inactive) | GI50 [53]: > 100 µM (inactive)

O=c1c2cc(O)c(O)cc2oc2cc(O)c(C3OC(CO)C(O)C(O)C3O)c(O)c12 (configuration not stated)
GI50 [1]: > 100 µM (inactive) | GI50 [2]: > 100 µM (inactive) | GI50 [3]: > 100 µM (inactive) | GI50 [4]: > 100 µM (inactive) | GI50 [5]: > 100 µM (inactive) | GI50 [6]: > 100 µM (inactive) | GI50 [7]: > 100 µM (inactive) | GI50 [8]: > 100 µM (inactive) | GI50 [9]: > 100 µM (inactive) | GI50 [10]: > 100 µM (inactive) | GI50 [11]: > 100 µM (inactive) | GI50 [12]: > 100 µM (inactive) | GI50 [54]: > 100 µM (inactive) | GI50 [13]: > 100 µM (inactive) | GI50 [14]: > 100 µM (inactive) | GI50 [15]: > 100 µM (inactive) | GI50 [16]: > 100 µM (inactive) | GI50 [17]: > 100 µM (inactive) | GI50 [18]: > 100 µM (inactive) | GI50 [19]: > 100 µM (inactive) | GI50 [20]: > 100 µM (inactive) | GI50 [21]: > 100 µM (inactive) | GI50 [55]: > 100 µM (inactive) | GI50 [22]: > 100 µM (inactive) | GI50 [23]: > 100 µM (inactive) | GI50 [24]: > 100 µM (inactive) | GI50 [25]: > 100 µM (inactive) | GI50 [26]: > 100 µM | GI50 [27]: > 100 µM (inactive) | GI50 [28]: > 100 µM (inactive) | GI50 [29]: > 100 µM (inactive) | GI50 [30]: > 100 µM (inactive) | GI50 [31]: > 100 µM (inactive) | GI50 [32]: > 100 µM (inactive) | GI50 [33]: > 100 µM (inactive) | GI50 [56]: > 100 µM (inactive) | GI50 [34]: > 100 µM (inactive) | GI50 [35]: > 100 µM (inactive) | GI50 [37]: > 100 µM (inactive) | GI50 [38]: > 100 µM (inactive) | GI50 [57]: > 100 µM (inactive) | GI50 [39]: > 100 µM (inactive) | GI50 [40]: > 100 µM (inactive) | GI50 [41]: > 100 µM (inactive) | GI50 [42]: > 100 µM (inactive) | GI50 [58]: > 100 µM (inactive) | GI50 [59]: > 100 µM (inactive) | GI50 [43]: > 100 µM (inactive) | GI50 [44]: > 100 µM (inactive) | GI50 [45]: > 100 µM (inactive) | GI50 [46]: > 100 µM (inactive) | GI50 [47]: > 100 µM (inactive) | GI50 [48]: > 100 µM (inactive) | GI50 [49]: > 100 µM (inactive) | GI50 [50]: > 100 µM (inactive) | GI50 [51]: > 100 µM (inactive) | GI50 [53]: > 100 µM (inactive)

Cn1cc(NC(=O)c2cc(NC(=O)CNC(=N)N)cn2C)cc1C(=O)NCCC(=N)N [NETROPSIN CHLORIDE]
GI50 [1]: > 100 µM (inactive) | GI50 [2]: > 100 µM (inactive) | GI50 [3]: > 100 µM (inactive) | GI50 [4]: > 100 µM (inactive) | GI50 [5]: > 100 µM (inactive) | GI50 [6]: > 100 µM (inactive) | GI50 [7]: > 100 µM (inactive) | GI50 [9]: > 100 µM (inactive) | GI50 [10]: > 100 µM (inactive) | GI50 [11]: > 100 µM (inactive) | GI50 [12]: > 100 µM (inactive) | GI50 [54]: > 100 µM (inactive) | GI50 [13]: > 100 µM (inactive) | GI50 [14]: > 100 µM (inactive) | GI50 [15]: > 100 µM (inactive) | GI50 [16]: > 100 µM (inactive) | GI50 [17]: > 100 µM (inactive) | GI50 [19]: > 100 µM (inactive) | GI50 [20]: > 100 µM (inactive) | GI50 [21]: > 100 µM (inactive) | GI50 [55]: > 100 µM (inactive) | GI50 [22]: > 100 µM (inactive) | GI50 [23]: > 100 µM (inactive) | GI50 [24]: > 100 µM (inactive) | GI50 [25]: > 100 µM (inactive) | GI50 [26]: > 100 µM | GI50 [27]: > 100 µM (inactive) | GI50 [28]: > 100 µM (inactive) | GI50 [29]: > 100 µM (inactive) | GI50 [30]: > 100 µM (inactive) | GI50 [31]: > 100 µM (inactive) | GI50 [32]: > 100 µM (inactive) | GI50 [33]: > 100 µM (inactive) | GI50 [56]: > 100 µM (inactive) | GI50 [34]: > 100 µM (inactive) | GI50 [35]: > 100 µM (inactive) | GI50 [36]: > 100 µM (inactive) | GI50 [37]: > 100 µM (inactive) | GI50 [38]: > 100 µM (inactive) | GI50 [57]: > 100 µM (inactive) | GI50 [39]: > 100 µM (inactive) | GI50 [40]: > 100 µM (inactive) | GI50 [41]: > 100 µM (inactive) | GI50 [42]: > 100 µM (inactive) | GI50 [58]: > 100 µM (inactive) | GI50 [59]: > 100 µM (inactive) | GI50 [43]: > 100 µM (inactive) | GI50 [44]: > 100 µM (inactive) | GI50 [45]: > 100 µM (inactive) | GI50 [46]: > 100 µM (inactive) | GI50 [47]: 41.7 µM (inactive) | GI50 [48]: > 100 µM (inactive) | GI50 [49]: > 100 µM (inactive) | GI50 [50]: > 100 µM (inactive) | GI50 [51]: > 100 µM (inactive) | GI50 [52]: > 100 µM (inactive) | GI50 [53]: > 100 µM (inactive)
